Results reported in patent US9751869B2, “LXR modulators” (BRISTOL-MYERS SQUIBB COMPANY, priority 2013, dated 2017).
pEC50: −log10 of the molar value.

Target: T1, LXRβ (Homo sapiens, UniProt P55055)
T1 construct: Co-transfection expression plasmids, comprising full-length LXRα (pCMX-h LXRα or LXRβ (pCMX-hLXRβ)); expressed in transfected cells; host or cells: CV-1 African green monkey kidney cells, transient transfection with pCMX-hLXRβ
T1 sequence (P55055 1-460): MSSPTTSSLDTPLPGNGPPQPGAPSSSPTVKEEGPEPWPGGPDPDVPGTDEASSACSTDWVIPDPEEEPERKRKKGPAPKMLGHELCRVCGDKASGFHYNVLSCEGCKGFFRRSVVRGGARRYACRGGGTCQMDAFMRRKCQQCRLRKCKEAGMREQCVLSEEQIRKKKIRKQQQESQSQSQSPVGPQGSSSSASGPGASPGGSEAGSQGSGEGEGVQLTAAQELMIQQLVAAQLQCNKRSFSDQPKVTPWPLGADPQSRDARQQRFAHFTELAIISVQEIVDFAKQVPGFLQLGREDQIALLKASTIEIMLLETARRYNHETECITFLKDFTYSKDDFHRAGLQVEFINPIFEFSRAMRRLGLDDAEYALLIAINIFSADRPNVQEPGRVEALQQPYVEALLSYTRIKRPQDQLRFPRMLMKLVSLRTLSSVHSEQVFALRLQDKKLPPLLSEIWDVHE
T1 sequence (P19793 1-462 partner): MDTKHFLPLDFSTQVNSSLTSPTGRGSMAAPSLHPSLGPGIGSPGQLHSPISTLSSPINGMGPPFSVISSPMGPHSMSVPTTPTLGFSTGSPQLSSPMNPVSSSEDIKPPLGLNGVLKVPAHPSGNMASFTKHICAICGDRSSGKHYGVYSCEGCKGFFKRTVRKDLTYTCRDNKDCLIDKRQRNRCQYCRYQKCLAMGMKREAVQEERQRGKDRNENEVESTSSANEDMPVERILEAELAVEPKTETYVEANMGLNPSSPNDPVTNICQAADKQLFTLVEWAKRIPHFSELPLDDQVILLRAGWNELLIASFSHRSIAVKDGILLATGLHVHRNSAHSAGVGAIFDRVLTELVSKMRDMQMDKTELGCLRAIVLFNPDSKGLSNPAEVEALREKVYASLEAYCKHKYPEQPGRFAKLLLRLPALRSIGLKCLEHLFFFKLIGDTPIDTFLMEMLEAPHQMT
Assay: LXR/LXRE co-transfection assay (luciferase reporter) in CV-1 cells, LXRβ
Format: cell-based
Conditions: for pEC50: CV-1 cells transfected with pCMX-hLXRβ and LXREx1-Tk-Luciferase, 20 hours incubation, read-out: LXRbeta agonism EC50; for Emax: CV-1 cells, relative to maximum response of high control N-(3-((4-fluorophenyl)-(naphthalene-2-sulfonyl)amino)propyl)-2,2-dimethylpropionamide, read-out: LXRbeta % EFFICACY
Summary of the method: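 Luciferase read-out after 20 h compound treatment at 37 °C of CV-1 cells carrying transfected hLXRβ plus one-copy LXRE reporter, endogenous RXR partnering. Sigmoidal fit of 10-point half-log curves (4 wells each) gave EC50; % efficacy versus maximal response of the propionamide reference agonist.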

Row | SMILES | pEC50 | Emax
1 | Cc1nc(-c2ccc3c(c2)OC(F)(F)O3)c(-c2cc(-c3cccc(S(C)(=O)=O)c3)ccc2-c2cc(C(C)(C)C(N)=O)nn2C)o1 [Example 96, 2-(5-(3-(4-(2,2-difluorobenzo[d][1,3]dioxol-5-yl)-2-methyloxazol-5-yl)-3′-(methylsulfonyl)biphenyl-4-yl)-1-methyl-1H-pyrazol-3-yl)-2-methylpropanamide] | 6.90 | 61%
2 | Cc1nc(-c2cc(-c3cccc(S(C)(=O)=O)c3)ccc2-n2ccc(C(F)(F)F)n2)c(-c2ccc(OC(F)F)c(Cl)c2)o1 [Example 397, 5-(3-chloro-4-(difluoromethoxy)phenyl)-2-methyl-4-(3′-(methylsulfonyl)-4-(3-(trifluoromethyl)-1H-pyrazol-1-yl)biphenyl-3-yl)oxazole] | 6.71 | 68%
3 | CNC(=O)C(F)(F)c1cc(-c2ccc(-c3cc(F)c(CO)c(S(C)(=O)=O)c3)cc2-c2oc(C)nc2-c2ccc3c(c2)OC(F)(F)O3)n(C)n1 [Example 50, 2-(5-(3-(4-(2,2-difluorobenzo[d][1,3]dioxol-5-yl)-2-methyloxazol-5-yl)-3′-fluoro-4′-(hydroxymethyl)-5′-(methylsulfonyl)biphenyl-4-yl)-1-methyl-1H-pyrazol-3-yl)-2,2-difluoro-N-methylacetamide] | 6.91 | 61%
4 | Cc1nc(-c2ccc3c(c2)OC(F)(F)O3)c(-c2cc(-c3cc(F)c(CO)c(S(C)(=O)=O)c3)ccc2-c2cc(C(=O)NCC(F)(F)F)nn2C)o1 [Example 112, 5-(3-(4-(2,2-difluorobenzo[d][1,3]dioxol-5-yl)-2-methyloxazol-5-yl)-3′-fluoro-4′-(hydroxymethyl)-5′-(methylsulfonyl)-[1,1′-biphenyl]-4-yl)-1-methyl-N-(2,2,2-trifluoroethyl)-1H-pyrazole-3-carboxamide] | 6.59 | 33%
5 | Cc1nc(-c2ccc3c(c2)OC(F)(F)O3)c(-c2cc(-c3cc(F)c(CO)c(S(C)(=O)=O)c3)ccc2-c2cc(C(C)(C)c3nnco3)nn2C)o1 [Example 68, (4′-(3-(2-(1,3,4-oxadiazol-2-yl)propan-2-yl)-1-methyl-1H-pyrazol-5-yl)-3′-(4-(2,2-difluorobenzo[d][1,3]dioxol-5-yl)-2-methyloxazol-5-yl)-3-fluoro-5-(methylsulfonyl)biphenyl-4-yl)methanol] | 7.54 | 51%
6 | Cc1nc(-c2ccc(OC(F)F)c(F)c2)c(-c2cc(-c3cc(F)c(CO)c(S(C)(=O)=O)c3)ccc2-c2cc(C(F)(F)C(N)=O)nn2C)o1 [Example 71, 2-(5-(3-(4-(4-(difluoromethoxy)-3-fluorophenyl)-2-methyloxazol-5-yl)-fluoro-4′-(hydroxymethyl)-5′-(methylsulfonyl)biphenyl-4-yl)-1-methyl-1H-pyrazol-3-yl)-2,2-difluoroacetamide] | 7.33 | 52%
7 | Cn1nc(C(F)(F)C(C)(C)O)cc1-c1ccc(-c2cccc(S(C)(=O)=O)c2)cc1-n1nncc1-c1ccc2c(c1)OC(F)(F)O2 [Example 33, 1-(5-(3-(5-(2,2-difluorobenzo[d][1,3]dioxol-5-yl)-1H-1,2,3-triazol-1-yl)-3′-(methylsulfonyl)-[1,1′-biphenyl]-4-yl)-1-methyl-1H-pyrazol-3-yl)-1,1-difluoro-2-methylpropan-2-ol] | 5.85 | 66%
8 | Cc1nc(-c2ccc(OC(F)(F)F)cc2)c(-c2cc(-c3cc(Cl)c(CO)c(S(C)(=O)=O)c3)ccc2-c2cc(C(F)(F)F)nn2C)o1 [Example 125, (3-chloro-4′-(1-methyl-3-(trifluoromethyl)-1H-pyrazol-5-yl)-3′-(2-methyl-4-(4-(trifluoromethoxy)phenyl)oxazol-5-yl)-5-(methylsulfonyl)-[1,1′-biphenyl]-4-yl)methanol] | 6.75 | 88%
9 | Cc1nc(-c2cc(-c3cccc(S(C)(=O)=O)c3)ccc2-n2nc(C(F)(F)F)cc2Cl)c(-c2ccc3c(c2)OC(F)(F)O3)o1 [Example 412, 4-(4-(5-chloro-3-(trifluoromethyl)-1H-pyrazol-1-yl)-3′-(methylsulfonyl)biphenyl-3-yl)-5-(2,2-difluorobenzo[d][1,3]dioxol-5-yl)-2-methyloxazole] | 7.54 | 93%
10 | CNC(=O)C(F)(F)c1cc(-c2ccc(-c3cc(F)c(CO)c(S(C)(=O)=O)c3)cc2-c2nc(C)oc2-c2ccc3c(c2)OC(F)(F)O3)n(C)n1 [Example 91, 2-(5-(3-(5-(2,2-difluorobenzo[d][1,3]dioxol-5-yl)-2-methyloxazol-4-yl)-3′-fluoro-4′-(hydroxymethyl)-5′-(methylsulfonyl)biphenyl-4-yl)-1-methyl-1H-pyrazol-3-yl)-2,2-difluoro-N-methylacetamide] | 6.87 | 45%
11 | Cc1nc(-c2ccc3c(c2)OC(F)(F)O3)c(-c2cc(-c3cccc(C(C)(C)C(N)=O)c3)ccc2-n2ccc(C(N)=O)n2)o1 [Example 364, 1-(3′-(1-amino-2-methyl-1-oxopropan-2-yl)-3-(4-(2,2-difluorobenzo[d][1,3]dioxol-5-yl)-2-methyloxazol-5-yl)-[1,1′-biphenyl]-4-yl)-1H-pyrazole-3-carboxamide] | 6.02 | 18%
12 | Cn1nc(C(F)(F)C(C)(C)O)cc1-c1ccc(-c2cc(F)c(CO)c(S(C)(=O)=O)c2)cc1-n1nncc1-c1ccc(OC(F)(F)F)cc1 [Example 3, 1,1-difluoro-1-(5-(3′-fluoro-4′-(hydroxymethyl)-5′-(methylsulfonyl)-3-(5-(4-(trifluoromethoxy)phenyl)-1H-1,2,3-triazol-1-yl)biphenyl-4-yl)-1-methyl-1H-pyrazol-3-yl)-2-methylpropan-2-ol] | 6.61 | 73%
13 | CCOc1cc(C(F)(F)F)nn1-c1ccc(-c2cccc(S(C)(=O)=O)c2)cc1-c1nc(C)oc1-c1ccc(OC(F)(F)F)cc1 [Example 311, 4-(4-(5-ethoxy-3-(trifluoromethyl)-1H-pyrazol-1-yl)-3′-(methylsulfonyl)biphenyl-3-yl)-2-methyl-5-(4-(trifluoromethoxy)phenyl)oxazole] | 6.10 | 37%
14 | Cc1nc(-c2ccc3c(c2)OC(F)(F)O3)c(-c2cc(-c3cccc(S(C)(=O)=O)c3)ccc2-c2cc(C#N)nn2C)o1 [Example 123, 5-(3-(4-(2,2-difluorobenzo[d][1,3]dioxol-5-yl)-2-methyloxazol-5-yl)-3′-(methylsulfonyl)-[1,1′-biphenyl]-4-yl)-1-methyl-1H-pyrazole-3-carbonitrile] | 7.03 | 35%
15 | CS(=O)(=O)c1cc(-c2ccc(-n3ccc(C(F)(F)F)n3)c(-c3oc(C4CC4)nc3-c3ccc(OC(F)(F)F)cc3)c2)cc(F)c1CO [Example 339, (3′-(2-cyclopropyl-4-(4-(trifluoromethoxy)phenyl)oxazol-5-yl)-3-fluoro-5-(methylsulfonyl)-4′-(3-(trifluoromethyl)-1H-pyrazol-1-yl)biphenyl-4-yl)methanol] | 7.22 | 64%
16 | Cc1cc(C(F)(F)F)nn1-c1ccc(-c2cc(F)c(CO)c(S(C)(=O)=O)c2)cc1-n1nncc1-c1ccc(OC(F)(F)F)cc1 [Example 301, [3-fluoro-5-(methylsulfonyl)-4′-[5-methyl-3-(trifluoromethyl)-1H-pyrazol-1-yl]-3′-(5-{4-[(trifluoromethyl)oxy]phenyl}-1H-1,2,3-triazol-1-yl)biphenyl-4-yl]methanol] | 7.49 | 101%
